Data as given in ChEMBL document CHEMBL4002625, “Synthesis and structure-activity relationship studies of phenolic hydroxyl derivatives based on quinoxalinone as aldose reductase inhibitors with antioxidant activity” (Bioorg Med Chem Lett, 2017).

Columns and labels:
[1] = Antioxidant activity assessed as DPPH radical scavenging activity at 50 uM after 240 mins by UV spectrophotometer relative to control; assay type: functional
[2] = Antioxidant activity assessed as DPPH radical scavenging activity at 10 uM after 240 mins by UV spectrophotometer relative to control; assay type: functional
[3] = molecular target: Aldo-keto reductase family 1 member B1 (Rattus norvegicus, UniProt P07943); assay: Inhibition of rat lens ALR2 using D,L-glyceraldehyde as substrate assessed as decrease in NADPH oxidation preincubated for 10 mins followed by substrate addition measured for 4 mins by spectrophotometer
[4] = Antioxidant activity assessed as DPPH radical scavenging activity at 100 uM after 240 mins by UV spectrophotometer relative to control; assay type: functional

Work on `COc1ccc2nc(/C=C/c3ccc(O)c(OC)c3)c(=O)n(CC(=O)O)c2c1` yielded an Activity [1] of 65.9%, an Activity [2] of 42.2% and an IC50 [3] of 210 nM. For the same compound, the Activity [4] was 83.5%.
`O=C(O)Cn1c(=O)c(-c2ccccc2)nc2ccc(O)cc21` gave an IC50 [3] of 3950 nM and an Activity [4] of 19.1%.
Work on `COc1ccc2nc(/C=C/c3ccccc3)c(=O)n(CC(=O)O)c2c1` yielded an IC50 [3] of 924 nM.
In the case of `O=C(O)Cn1c(=O)c(-c2ccccc2)nc2cc(O)ccc21`, the IC50 [3] is reported as 4290 nM and the Activity [4] is reported as 15.8%.
Work on `COc1ccc2c(c1)nc(CCc1ccc(O)c(OC)c1)c(=O)n2CC(=O)O` yielded an IC50 [3] of 983 nM and an Activity [4] of 31.9%.
For `COc1ccc2nc(CCc3ccc(O)cc3)c(=O)n(CC(=O)O)c2c1`, the IC50 [3] was 508 nM and the Activity [4] was 20.7%.
`COc1ccc2c(c1)nc(/C=C/c1ccc(O)cc1)c(=O)n2CC(=O)O` gave an Activity [1] of 27.6%, an IC50 [3] of 98 nM and an Activity [4] of 51.8%.
`Cc1c(C)c2c(c(C)c1O)CCC(C)(C(=O)O)O2` (stereo not given) gave an Activity [1] of 92.7%, an Activity [2] of 89.3% and an Activity [4] of 96.5%.
Compound `COc1ccc2nc(-c3ccc(O)cc3O)c(=O)n(CC(=O)O)c2c1` has an IC50 [3] of 179 nM and an Activity [4] of 37.2%.
Compound `COc1ccc2nc(-c3cccc(O)c3)c(=O)n(CC(=O)O)c2c1` has an IC50 [3] of 3410 nM and an Activity [4] of 8.5%.
For `COc1ccc2nc(-c3c(O)cc(O)cc3O)c(=O)n(CC(=O)O)c2c1`, the Activity [1] was 69.3%, the Activity [2] was 40.6% and the IC50 [3] was 116 nM. It also gave an Activity [4] of 80.6%.
With `COc1ccc2nc(-c3cc(O)ccc3O)c(=O)n(CC(=O)O)c2c1` the IC50 [3] was 865 nM and the Activity [4] was 25.4%.
With `COc1ccc2c(c1)nc(-c1c(O)cc(O)cc1O)c(=O)n2CC(=O)O` the Activity [1] was 53.7%, the Activity [2] was 36.4% and the IC50 [3] was 273 nM. For the same compound, the Activity [4] was 68.7%.
For `COc1ccc2c(c1)nc(-c1ccccc1)c(=O)n2CC(=O)O`, the IC50 [3] was 6820 nM.
With `COc1ccc2nc(/C=C/c3ccc(O)cc3)c(=O)n(CC(=O)O)c2c1` the Activity [1] was 34.3%, the IC50 [3] was 59 nM and the Activity [4] was 59.2%.
With `COc1ccc2nc(-c3ccccc3)c(=O)n(CC(=O)O)c2c1` the IC50 [3] was 5310 nM.
Work on `COc1ccc2nc(-c3ccc(O)cc3)c(=O)n(CC(=O)O)c2c1` yielded an IC50 [3] of 2080 nM and an Activity [4] of 12.3%.
Compound `O=C(O)Cn1c(=O)c(/C=C/c2ccc(O)c(O)c2)nc2cc(O)ccc21` has an Activity [1] of 77.8%, an Activity [2] of 64.2% and an IC50 [3] of 159 nM. It also gave an Activity [4] of 90.4%.
With `COc1ccc2c(c1)nc(/C=C/c1ccc(O)c(OC)c1)c(=O)n2CC(=O)O` the Activity [1] was 61.4%, the Activity [2] was 39.7% and the IC50 [3] was 185 nM. For the same compound, the Activity [4] was 74.9%.
Work on `COc1ccc2nc(CCc3ccc(O)c(OC)c3)c(=O)n(CC(=O)O)c2c1` yielded an IC50 [3] of 847 nM and an Activity [4] of 28.3%.
Work on `O=C(O)Cn1c(=O)c(/C=C/c2ccc(O)c(O)c2)nc2ccc(O)cc21` yielded an Activity [1] of 82.1%, an Activity [2] of 70.5% and an IC50 [3] of 102 nM. For the same compound, the Activity [4] was 96.2%.
In the case of `COc1ccc2nc(CCc3ccccc3)c(=O)n(CC(=O)O)c2c1`, the IC50 [3] is reported as 1300 nM.
